The record followed here is publication PMC4405350, “From Broad-Spectrum Biocides to Quorum Sensing Disruptors and Mussel Repellents: Antifouling Profile of Alkyl Triphenylphosphonium Salts” (PLoS ONE, 2015).

One series concerns Mushroom tyrosinase. The series is described as follows: Tyrosinase fluorescence quenching (fluorescence spectroscopy). In kind it is binding, Agaricus bisporus. To be noted: 280 nm excitation, 0–30 μM quencher. As to the method:
Fluorescence measurements of tyrosinase solutions were performed using an Edinburgh Instruments LifeSpec II fluorescence spectrometer, exciting the complexes at 280 nm with an Edinburgh Instruments EPLED-280 subnanosecond pulsed diode source (typically pulse width at half maximum around 860 ps, repetition rate 10 MHz) and using Edinburg Instruments F900 acquisition software. A multichannel plate photomultiplier was used as the detector using single photon counting technique. Lifetime estimation was made using instrument response function (IRF) reconvolution analysis with FAST software by Edinburgh Instruments, providing a temporal resolution around 0.2 ns. A blank medium without enzyme was used to confirm that the collected fluorescence comes from the enzyme molecules and any influence of the fluorescence of the quencher and buffer components on the enzyme fluorescence is negligible. […]
Fluorescence of enzymes is very sensitive to conformational changes of the protein structure. The interaction of tyrosinase inhibitors can be evaluated by the analysis of the intrinsic tyrosinase fluorescence when tyrosinase and inhibitor (quencher) molecules are mixed in a solution. In particular, we have evaluated the effect of the tyrosinase inhibitor 16. Quenching of tyrosinase fluorescence is expected as a consequence of conformational alterations induced by the quencher. […]

Series [1] has as its target Mushroom tyrosinase (EC 1.14.18.1) (Agaricus bisporus, UniProt C7FF04). The series is described as follows: Tyrosinase inhibition assay (L-Dopa, dopachrome at 475 nm). Type of series: biochemical. To be noted: 15 and 30 μM inhibitor.
Protocol: Tyrosinase inhibition assays were conducted as described in [52] with slight modifications. First, in order to characterize the Michaelis-Menten parameters of the enzyme kinetics, 100 μl of a mushroom tyrosinase solution (25 U) in sodium phosphate buffer (50 mM, pH 6.5) were pipetted in each well of a flat-bottom microtiter plate (Nunc 167008). Two-fold dilutions of L-Dopa, from 4.8 to 0.075 mM (final concentrations) were mixed (100 μl) with the enzyme solution. The enzymatic reaction was followed by measuring the absorbance at 475 nm every 30 s over 15 min, with shaking (150 rpm) between measurements. Temperature was kept constant at 30 °C. The values of KM and vmax under these conditions were obtained from Lineweaver-Burk plots. For tyrosinase inhibition assays, each well of the microtiter plate was filled with 100 μl of a mushroom tyrosinase solution and the appropriate amount of the test substance dissolved in DMSO. The compounds were pre-incubated with the enzyme at 30 °C for 10 min. Subsequently, the enzymatic reaction was triggered by addition of 100 μl of L-Dopa (1.2 mM test concentration). Formation of dopachrome was followed by measuring the absorbance at 475 nm as described above.
Series [2] in a line: Solubility in water (stock preparation). Type of series: physicochemical. Conditions: for 40-mM stock. The protocol:
Indeed, the inhibitions observed in violacein production for long alkyl chains (10–18, 20) were clearly correlated to the biocidal effect exerted by these compounds, with ‘therapeutic ratios’ (IC50 for growth inhibition/IC50 for violacein inhibition) around 1, in general (Table 2). Note that, as the length of the hydrocarbon chain becomes shorter, this ratio increased (8–9). […] To evaluate these compounds in further detail, […] stock solutions were prepared […] to avoid the use of high concentrations of DMSO in the bioassays. […] Serial two-fold dilutions (500–3.9 μM) were assayed. Consequently, the highest amount of DMSO used in the assay was 0.25% (v/v). […] Growth inhibitory effects are only observed at 500 μM, particularly for compound 7 (Fig 6D).

Chain of Mushroom tyrosinase (EC 1.14.18.1) (G1K3P4 entry or part of it): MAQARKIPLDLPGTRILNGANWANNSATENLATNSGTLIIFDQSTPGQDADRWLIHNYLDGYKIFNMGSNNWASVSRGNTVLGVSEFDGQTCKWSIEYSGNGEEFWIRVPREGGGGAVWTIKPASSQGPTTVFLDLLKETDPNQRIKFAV
Chain of Mushroom tyrosinase (EC 1.14.18.1) (C7FF04 1-392): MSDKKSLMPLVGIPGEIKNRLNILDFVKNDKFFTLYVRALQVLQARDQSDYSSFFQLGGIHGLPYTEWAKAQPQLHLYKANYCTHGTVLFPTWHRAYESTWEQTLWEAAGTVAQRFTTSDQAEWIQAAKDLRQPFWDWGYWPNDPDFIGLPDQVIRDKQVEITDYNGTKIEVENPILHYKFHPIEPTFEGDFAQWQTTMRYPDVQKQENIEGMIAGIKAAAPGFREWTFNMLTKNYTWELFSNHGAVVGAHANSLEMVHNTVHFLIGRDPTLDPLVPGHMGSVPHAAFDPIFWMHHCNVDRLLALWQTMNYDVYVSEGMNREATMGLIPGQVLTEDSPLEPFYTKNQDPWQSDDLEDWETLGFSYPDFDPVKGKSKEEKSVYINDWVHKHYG

Turning to `CCCCCCCCCCCCCCCC[P+](c1ccccc1)(c1ccccc1)c1ccccc1` [Compound 16], the “Stern-Volmer quenching constant KSV” value in the series on Mushroom tyrosinase is listed as “about 4490 M^-1”. In addition, in series [1], the “Type of tyrosinase inhibition (Lineweaver-Burk plots)” value is “non-competitive inhibition”.

As to `CCCCC[P+](c1ccccc1)(c1ccccc1)c1ccccc1` [Compound 7], the Solubility in water result in series [2] is “poor solubility in water”.
